Experiments:
human SMAD7 mRNA = experiment: Antisense inhibition of human SMAD7 mRNA expression in Hep3B cells by 3-10-3 cEt gapmers, 10,000 nM, electroporation (Example 2); assay type: cell-based; conditions: approximately 24 hours
In short: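 Percent inhibition of SMAD7 mRNA, relative to untreated cells, after ~24 h exposure of electroporated Hep3B cells to 10,000 nM cEt gapmer; levels by qRT-PCR, corrected for total RNA.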

[1] = Oligonucleotide concentration in liver and colon by LC-MS/MS after subcutaneous administration in CD-1 mice (Example 6); assay type: in vivo; conditions: 50 mg/kg subcutaneously twice a week for 7 weeks, 48 hours after the last dose
Description: Groups of 8-9 week old male CD-1 mice were injected subcutaneously twice a week for 7 weeks with 50 mg/kg of Ionis oligonucleotides (100 mg/kg/week dose). Each group contained 4 mice. One group of male CD-1 mice was injected subcutaneously twice a week for 7 weeks with PBS. Plasma was collected for analysis on day 28.
Oligonucleotide concentrations in the liver and colon were analyzed using LC-MS/MS method.

mouse Smad7 mRNA = experiment: Pharmacology: mouse Smad7 mRNA expression in liver, kidney, duodenum, ileum and colon after subcutaneous administration in CD-1 mice (Example 6); assay type: in vivo; conditions: 50 mg/kg subcutaneous twice weekly for 7 weeks, normalized to GAPDH
In short: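 Male CD-1 mice, 8-9 weeks old, got 50 mg/kg oligonucleotide subcutaneously twice weekly (100 mg/kg/week) for 7 weeks, with PBS controls; n=4 per group. At necropsy, Smad7 mRNA in liver, kidney, duodenum, ileum and colon was measured by RT-PCR (probe set HTS7555), normalized to GAPDH; one-way ANOVA with Dunnett's test.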

[2] = Blood chemistry markers after oral gavage in CD-1 mice (Example 7); assay type: in vivo; conditions: 500 mg/kg oral gavage once daily for 4 weeks, day 30
Description: The objective of this study was to evaluate the tolerability and pharmacodynamics of select Ionis human SMAD7 antisense oligonucleotides in CD-1 mice following 4 weeks of treatment. The mice were administered oligonucleotides by oral gavage.
(§1) Groups of 7-8 week old male CD-1 mice were given an oral gavage dose once daily for 4 weeks of 500 mg/kg of Ionis SMAD7 oligonucleotides. Each group contained 8 mice. One group of male CD-1 mice was administered saline by oral gavage daily.
Levels of transaminases, albumin, and BUN were measured using a Toshiba 200FR NEO chemistry analyzer (Toshiba Co., Japan).

[3] = Oligonucleotide concentrations in tissues by LC-MS/MS after oral gavage in CD-1 mice (Example 7); assay type: in vivo; conditions: 500 mg/kg oral gavage once daily for 4 weeks, 48 hours after last dose
Description: as §1
Oligonucleotide concentrations were detected in various tissues by LC-MS/MS analysis. The greatest concentration was found in the kidney, followed by the colon.

[4] = Plasma chemistry markers after subcutaneous administration in beagle dogs (Example 8); conditions: 30 mg/kg subcutaneous days 1, 3, 5, 8, 15, 22, 29, plasma at day 31
[5] = system: human peripheral blood mononuclear cells (PBMCs); experiment: Human PBMC activation assay, cytokine levels (IL-10, IL-6, MCP-1, TNF-α) in supernatant after 24 hours (Example 9); conditions: human PBMC supernatant after 24 hours
Description: Ionis SMAD7 oligonucleotides were tested in an in vitro assay for potential immunostimulatory properties in an in vitro human peripheral blood mononuclear cell (PBMC) activation assay.
Blood samples were collected from healthy human volunteers in heparinized vials and mixed well. Human PBMCs were isolated by gradient centrifugation using Ficoll-Histopaque. The cells were washed, counted and resuspended in medium. The PBMCs were plated in a 24-well culture plate and various concentrations of oligonucleotides were added to the media. An oligonucleotide historically known to promote an inflammatory response was used as a positive control, whereas an oligonucleotide known not to be pro-inflammatory was used as a negative control. […] The supernatants were collected after 24 hours and analyzed for cytokine levels using MSD platform.

[6] = Hep3B cells, electroporation with 10,000 nM antisense oligonucleotide, SMAD7 mRNA by RT-PCR (RTS5062), relative to untreated control cells

With “830121 (AGAATCAAGCCCTGGC; 3-10-3 cEt gapmer, further chemistry not given here) [compound 830121]” the “% Inhibition” value (human SMAD7 mRNA; [6]) was 69%, the “Oligonucleotide concentration, Colon” value [1] was 14 μg/g tissue and the “Oligonucleotide concentration, Liver” value [1] was 50 μg/g tissue. For the same substance, the “% inhibition of Smad7 mRNA expression (compared to control), Kidney” value (mouse Smad7 mRNA) was 0%, the “% inhibition of Smad7 mRNA expression (compared to control), Liver” value (mouse Smad7 mRNA) was 24% and the ALT [2] was 45 IU/L. The AST [2] was 75 IU/L, the Albumin [2] was 3.3 g/dL and the BUN [2] was 24 mg/dL. For the same substance, the Bilirubin [2] was 0.2 mg/dL, the “Oligonucleotide concentration, Colon” value [3] was 2.7 µg/g and the “Oligonucleotide concentration, Duodenum” value [3] was 0.4 µg/g. The “Oligonucleotide concentration, Ileum” value [3] was 1.1 µg/g, the “Oligonucleotide concentration, Kidney” value [3] was 13.2 µg/g and the “Oligonucleotide concentration, Liver” value [3] was 0.9 µg/g. For the same substance, the ALT [4] was 1454 IU/L, the AST [4] was 383 IU/L and the Albumin [4] was 3.0 g/dL. It also gave a BUN [4] of 20.0 mg/dL, a Bilirubin [4] of 2.6 mg/dL and a Creatine [4] of 0.9 mg/dL. The “Levels of IL-6” value ([5]; 0.0128 μM oligonucleotide) was 4.1 pg/mL, the “Levels of IL-10” value ([5]; 0.0128 μM oligonucleotide) was 2.0 pg/mL and the “Levels of MCP-1” value ([5]; 0.0128 μM oligonucleotide) was 324.5 pg/mL. For the same substance, the “Levels of TNF-α” value ([5]; 0.0128 μM oligonucleotide) was 3.0 pg/mL, the “Levels of IL-6” value ([5]; 0.064 μM oligonucleotide) was 4.9 pg/mL and the “Levels of IL-10” value ([5]; 0.064 μM oligonucleotide) was 1.3 pg/mL. For the same substance, the “Levels of MCP-1” value ([5]; 0.064 μM oligonucleotide) was 370.4 pg/mL, the “Levels of TNF-α” value ([5]; 0.064 μM oligonucleotide) was 3.5 pg/mL and the “Levels of IL-6” value ([5]; 0.32 μM oligonucleotide) was 4.4 pg/mL. The “Levels of IL-10” value ([5]; 0.32 μM oligonucleotide) was 1.3 pg/mL, the “Levels of MCP-1” value ([5]; 0.32 μM oligonucleotide) was 336.4 pg/mL and the “Levels of TNF-α” value ([5]; 0.32 μM oligonucleotide) was 3.1 pg/mL. For the same substance, the “Levels of IL-6” value ([5]; 1.6 μM oligonucleotide) was 5.4 pg/mL, the “Levels of IL-10” value ([5]; 1.6 μM oligonucleotide) was 3.1 pg/mL and the “Levels of MCP-1” value ([5]; 1.6 μM oligonucleotide) was 501.8 pg/mL. The “Levels of TNF-α” value ([5]; 1.6 μM oligonucleotide) was 3.6 pg/mL, the “Levels of IL-6” value ([5]; 8 μM oligonucleotide) was 7.5 pg/mL and the “Levels of IL-10” value ([5]; 8 μM oligonucleotide) was 3.7 pg/mL. For the same substance, the “Levels of MCP-1” value ([5]; 8 μM oligonucleotide) was 717.1 pg/mL, the “Levels of TNF-α” value ([5]; 8 μM oligonucleotide) was 4.8 pg/mL and the “Levels of IL-6” value ([5]; 40 μM oligonucleotide) was 14.3 pg/mL. The “Levels of IL-10” value ([5]; 40 μM oligonucleotide) was 2.2 pg/mL, the “Levels of MCP-1” value ([5]; 40 μM oligonucleotide) was 1225.2 pg/mL and the “Levels of TNF-α” value ([5]; 40 μM oligonucleotide) was 9.4 pg/mL. The “Levels of IL-6” value ([5]; 200 μM oligonucleotide) was 35.2 pg/mL, the “Levels of IL-10” value ([5]; 200 μM oligonucleotide) was 1.4 pg/mL and the “Levels of MCP-1” value ([5]; 200 μM oligonucleotide) was 411.0 pg/mL. For the same substance, the “Levels of TNF-α” value ([5]; 200 μM oligonucleotide) was 14.2 pg/mL.

With “798781 (CGTAAGATTCACAGCA; 3-10-3 cEt gapmer, further chemistry not given here) [compound 798781]” the “% Inhibition” value (human SMAD7 mRNA; [6]) was 52%, the “% Inhibition” value (human SMAD7 mRNA; SMAD7 mRNA, Hep3B cells, 10,000 nM antisense oligonucleotide, electroporation, primer probe set RTS5062, relative to untreated control cells) was 69% and the “Oligonucleotide concentration, Colon” value [1] was 63 μg/g tissue. For the same substance, the “Oligonucleotide concentration, Liver” value [1] was 312 μg/g tissue, the “% inhibition of Smad7 mRNA expression (compared to control), Kidney” value (mouse Smad7 mRNA) was 18% and the “% inhibition of Smad7 mRNA expression (compared to control), Liver” value (mouse Smad7 mRNA) was 28%. It also gave an ALT [2] of 43 IU/L, an AST [2] of 73 IU/L and an Albumin [2] of 3.2 g/dL. For the same substance, the BUN [2] was 25 mg/dL, the Bilirubin [2] was 0.3 mg/dL and the “Oligonucleotide concentration, Colon” value [3] was 4.4 µg/g. For the same substance, the “Oligonucleotide concentration, Duodenum” value [3] was 0.7 µg/g, the “Oligonucleotide concentration, Ileum” value [3] was 2.9 µg/g and the “Oligonucleotide concentration, Kidney” value [3] was 45.2 µg/g. The “Oligonucleotide concentration, Liver” value [3] was 2.9 µg/g, the ALT [4] was 32 IU/L and the AST [4] was 45 IU/L. It also gave an Albumin [4] of 3.0 g/dL, a BUN [4] of 19.4 mg/dL and a Bilirubin [4] of 0.2 mg/dL. The Creatine [4] was 0.9 mg/dL, the “Levels of IL-6” value ([5]; 0.0128 μM oligonucleotide) was 3.4 pg/mL and the “Levels of IL-10” value ([5]; 0.0128 μM oligonucleotide) was 2.2 pg/mL. For the same substance, the “Levels of MCP-1” value ([5]; 0.0128 μM oligonucleotide) was 332.9 pg/mL, the “Levels of TNF-α” value ([5]; 0.0128 μM oligonucleotide) was 2.6 pg/mL and the “Levels of IL-6” value ([5]; 0.064 μM oligonucleotide) was 4.9 pg/mL. The “Levels of IL-10” value ([5]; 0.064 μM oligonucleotide) was 2.0 pg/mL, the “Levels of MCP-1” value ([5]; 0.064 μM oligonucleotide) was 387.0 pg/mL and the “Levels of TNF-α” value ([5]; 0.064 μM oligonucleotide) was 3.3 pg/mL. For the same substance, the “Levels of IL-6” value ([5]; 0.32 μM oligonucleotide) was 6.9 pg/mL, the “Levels of IL-10” value ([5]; 0.32 μM oligonucleotide) was 2.3 pg/mL and the “Levels of MCP-1” value ([5]; 0.32 μM oligonucleotide) was 483.1 pg/mL. For the same substance, the “Levels of TNF-α” value ([5]; 0.32 μM oligonucleotide) was 3.8 pg/mL, the “Levels of IL-6” value ([5]; 1.6 μM oligonucleotide) was 12.3 pg/mL and the “Levels of IL-10” value ([5]; 1.6 μM oligonucleotide) was 3.9 pg/mL. For the same substance, the “Levels of MCP-1” value ([5]; 1.6 μM oligonucleotide) was 597.2 pg/mL, the “Levels of TNF-α” value ([5]; 1.6 μM oligonucleotide) was 5.1 pg/mL and the “Levels of IL-6” value ([5]; 8 μM oligonucleotide) was 18.1 pg/mL. The “Levels of IL-10” value ([5]; 8 μM oligonucleotide) was 2.9 pg/mL, the “Levels of MCP-1” value ([5]; 8 μM oligonucleotide) was 582.7 pg/mL and the “Levels of TNF-α” value ([5]; 8 μM oligonucleotide) was 6.5 pg/mL. For the same substance, the “Levels of IL-6” value ([5]; 40 μM oligonucleotide) was 20.7 pg/mL, the “Levels of IL-10” value ([5]; 40 μM oligonucleotide) was 1.4 pg/mL and the “Levels of MCP-1” value ([5]; 40 μM oligonucleotide) was 565.8 pg/mL. The “Levels of TNF-α” value ([5]; 40 μM oligonucleotide) was 6.3 pg/mL, the “Levels of IL-6” value ([5]; 200 μM oligonucleotide) was 28.0 pg/mL and the “Levels of IL-10” value ([5]; 200 μM oligonucleotide) was 0.6 pg/mL. The “Levels of MCP-1” value ([5]; 200 μM oligonucleotide) was 61.3 pg/mL and the “Levels of TNF-α” value ([5]; 200 μM oligonucleotide) was 4.0 pg/mL.

From patent US10517889B2, “Modulators of SMAD7 expression” (Ionis Pharmaceuticals, Inc., priority 2017, dated 2019)
